Assays:
EAE mice = assay: Experimental autoimmune encephalomyelitis (EAE), animal model of MS; type: in vivo, mouse; conditions: injected intraperitoneally twice a week at 10 mg/Kg
Protocol: Active EAE in wild-type C57Bl/6 mice was induced as described. Briefly, the mice were challenged in the […] with an emulsion containing 50 μg of MOG p35-55 peptide ( ) supplemented with 8 mg/ml heat-inactivated Mycobacterium tuberculosis (H37Ra strain; Difco Laboratories) in CFA (Difco Laboratories) on day 0 in the tail base. Booster immunization with an identical emulsion was given on both sides. Bordetella pertussis toxin (PT) (List Biologicals) were administered i.p. (200 ng/mouse) 48 h after the immunization. For induction of EAE in MOGi-cre/Atx^n/n mice, the doses for MOG35-55 peptide and PT were the same as for wild type mice Atx^n/n. From mice injected at 8 to 12 weeks of age, representative animals were fixed for immunohistochemistry (4% paraformaldehyde in phosphate-buffered saline) and then 7-μm thick frozen sections were used for immunohistochemistry, or fixed in 10% buffered formalin overnight at 4° C. for histopathology. […]
Mice were observed daily for clinical signs of EAE. The severity of EAE was evaluated and scored as follows: 0, no clinical disease; 1, tail paralysis; 2, hindlimb weakness and abnormal gait (incomplete paralysis of one or two hindlimbs); 3, paraplegia (complete paralysis of one or two hindlimbs); 4, quadriplegia; 5, moribund or dead animals.

ATX [1] = biological target: T1, ATX (Mus musculus, UniProt Q9R1E6); assay: ATX activity assay (FS-3 cleavage) in BAL fluids, LPS model; type: in vivo; conditions: intratracheal prior to LPS; 24 hr
T1 construct: from tissue; host or cells: BAL fluid of WT mice exposed to aerosolised LPS
Protocol: Autotaxin activity in BALF of mice was determined using the cleavage of the ATX-specific fluorogenic substrate FS-3 (Echelon Biosciences, UT, USA). Assays were conducted in a final volume of 100 μl comprising 20 μl 5× assay buffer (700 mM NaCl, 25 mM KCl, 5 mM MgCl2 and 250 mM Tris, pH 8.0), 20 μl of FS-3 (final concentration 2.5 μM) and 60 μl of BALF (diluted 1:2 in 1×PBS). Reactions were incubated at 37° C. in a Tecan Infinite 200 microplate reader (Tecan Trading AG, Switzerland) set to make fluorescence measurements every 5 min for 1 hour. Autotaxin activity was quantitated by measuring the rate of increase in fluorescence at 528 nm with excitation at 485 nm.

CIA in DBA/1 mice = assay: Experimental arthritis (collagen induced arthritis, CIA) in mice; type: in vivo, mouse; conditions: injected intraperitoneally twice a week
ATX [2] = biological target: T1, ATX; assay: ATX activity assay (FS-3 cleavage) in plasma of saline- and BLM-treated mice; type: in vivo; conditions: both in saline- and BLM-treated mice
Protocol: […] […] Reactions were incubated at 37° C. in a Tecan Infinite 200 microplate reader (Tecan Trading AG, Switzerland) set to make fluorescence measurements every 5 min for 1 hour. Autotaxin activity was quantitated by measuring the rate of increase in fluorescence at 528 nm with excitation at 485 nm.

WT mice (C57/BL6) = assay: BLM-induced pulmonary fibrosis in mice; type: in vivo, mouse
Source text: 8-12 week old littermate mice were divided into an experimental group that received intratracheal Bleomycin (BLM, 0.08 U) and a control group that received Normal Saline instead. Mice were sacrificed at 7 and 14 days post BLM instillation for pathology evaluation.
Age and sex-matched 6-8 week old WT (C57/Bl6) mice were divided in four study groups according to the treatment regime.
Group A (n=5) received i.p injections of Veh (water) twice per week for two weeks starting at day −1 and instilled with Saline intratracheally at day 0.
Group B (n=3) received i.p injections of BRP-LPA (10 mg/Kg) twice per week for two weeks starting at day −1 and instilled with Saline intratracheally at day 0.
Group C (n=9) received i.p injections of Veh twice per week for two weeks starting at day −1 and instilled with BLM (0.08 U) intratracheally at day 0.
Group D (n=8) received i.p injections of BRP-LPA (10 mg/Kg) twice per week for two weeks starting at day −1 and instilled with BLM (0.08 U) intratracheally at day 0. A schematic representation of the time course of the protocol is depicted below.
All mice were sacrificed at day 14 after BLM instillation for disease evaluation. […] Lungs were lavaged 3 times with 1 ml aliquots of saline (BAL) followed by perfusion through the right ventricle of the heart with 10 ml of PBS. BAL fluid was centrifuged and cell pellets were used for total cell counts with Trypan Blue while the supernatant was snap frozen.
Right lung was instilled with 1 ml of buffered formalin, dissected and fixed O/N in formalin. Left lung was snap frozen and used for soluble collagen measurements using the Sircol assay.
Schematic representation of BRP-LPA administration protocol. BRP-LPA (or water) was administered intraperioneally in mice starting one day before BLM (or Sal) instillation and every three other days until the end of the study (14 days). Pulmonary fibrosis was induced with a single i.t. instillation of BLM at day 0.
Soluble collagen measurements were performed using the Sircol reagent according to manufacture's recommendations.

WT mice = assay: LPS-induced lung inflammation (aerosolised LPS) in mice; type: in vivo, mouse
Protocol: 6-8 week old littermate mice were divided into an experimental group that received aerosolised LPS (from Pseudomonas aeruginosa, 10 mg dissolved in 3 ml Normal Saline) and a control group that received Normal Saline instead. […] The LPS solution was administered by a custom-made nebuliser flowing at 4 l/min oxygen for 20-25 min into an airtight chamber containing 5-7 mice. All analyses were performed 24 h later.
Upon euthanasia, blood was drawn from the vena cava and was added to 50 mM EDTA for plasma preparations. Lungs were lavaged with an aliquot of 1 ml normal saline followed by 2 ml of saline (Bronchoalveolar Lavage Fluid. BALF). BALF aliquots were centrifuged; the cell pellets were combined and used for total cell counts with Trypan Blue while supernatants were snap-frozen. Lungs were then perfused with 10 ml of PBS through the spontaneous beating right ventricle and the left lung was snap-frozen for future analysis while the right lung was fixed in 10% neutral buffered formalin. Tissues were embedded in paraffin, and 5-μm-thick sections were cut at the median transverse level of the lungs. Sections were mounted on glass slides and stained with H&E.
Total protein concentration in BALFs was measured using the Bradford protein assay (Biorad, Hercules, Calif.) according to manufacturer's recommendations. OD readings of samples were converted to μg/ml using values obtained from a standard curve generated with serial dilutions of bovine serum albumin (50-500 μg/ml).

ATX [3] = assay: ATX ELISA in plasma and BAL fluids of control and BLM treated mice; type: in vivo, mouse; conditions: saline treated, naive mice; same trend in BLM-treated mice
Protocol: To detect ATX in biological fluids, a direct ELISA assay was developed using the commercially available anti-phospholipase D polyclonal antibody (Cat. No. 10005375, Cayman chemical, USA). The bottom of a NUNC-IMMUNO 96 MicroWell Elisa plate was coated overnight with 100 μl of 1:200 diluted serum in 0.05 M carbonate/bicarbonate coating buffer, pH 9.5 (Cat. No. S7795/S7277, Sigma, Saint Louis, […]., USA), washed three times with 0.05% Tween-20 (Cat. No. P1379, Sigma, USA) in TBS and blocked with 0.1% Bovine Serum Albumin (Cat. No. A7888, Sigma, USA) in 0.05% TBST for 1 h at RT. For each ELISA assay, 100 μl of two-fold serial dilutions of recombinant ATX protein ranging from 0.1 to 1.6 μg/ml were plated as standard curve and treated as all samples.
The plate was then incubated with 0.5 μg/ml detection antibody for 1 h and washed three times with 0.05% TBST. Autotaxin antigen was then detected with an anti-rabbit HRP-labeled secondary antibody (Cat. No. 4010-05, SouthernBiotech, USA) that was developed with TMB substrate (Cat. No. […], Sigma, USA). Readings were obtained at 450 nm. All samples and standards were assayed in triplicates.

SMILES: CCCCCCCCCCCCCCCC(=O)OC[C@@H](O)CC(Br)P(=O)(O)O (stereo partly drawn) [BrP-LPA, 1-Bromo-3(S)-hydroxy-4-(palmitoyloxy)butyl-phosphonate]
- disease development (clinical score) (EAE mice): attenuated disease development
- ATX enzymatic activity in BAL fluids (ATX [1]): failed to detect lower levels of enzymatic activity
- disease development (clinical and histopathological analysis) (CIA in DBA/1 mice): attenuated disease development
- ATX activity in plasma (ATX [2]): reduced ATX activity
- fibrosis development (histopathology, H/E lung sections) (WT mice (C57/BL6); 10 mg/Kg i.p. biweekly, 14 days after BLM, vs vehicle): development of focal areas of fibrosis with a patchy distribution in lung parenchyma
- soluble collagen accumulation (WT mice (C57/BL6); 10 mg/Kg i.p., 14 days after BLM, vs Veh-treated mice): significant reduction of collagen accumulation
- BAL total cell counts (WT mice (C57/BL6); 14 days post BLM administration, Brp- vs Veh-treated): did not differ
- total protein content in BAL fluids (WT mice (C57/BL6); vehicle- vs BrP-treated mice after BLM): did not differ
- BAL fluid total cell counts (recruitment of neutrophils in the lungs) (WT mice; BrP-LPA 100 μg/mouse intratracheally prior to aerosolized LPS (10 mg)): 1.9×10^6±0.16
- BAL protein content (WT mice; LPS-exposed mice, vs vehicle-treated mice): significantly elevated
- LPS-induced lung inflammation and alveolar edema (histopathology, BALF total cell counts) (WT mice; intratracheal prior to LPS exposure, 24 hr): significant increases
- total protein concentration in BAL fluids (WT mice; saline treated mice): increased total protein concentration
- levels of ATX in plasma and in BAL fluids (ATX [3]): non statistical increase

Source: patent publication US20130202614A1, “AUTOTAXIN PATHWAY MODULATION AND USES THEREOF” (B.S.R.C. "ALEXANDER FLEMING", priority 2010, published 2013)
